Results: patent publication US20050239767A1, “Intermolecular SNAr of the heterocycle-activated nitro and fluoro groups-application in the synthesis of polyazamacrocyclic ligands” (priority 2003, published 2005)

Test system: HIV-1
Test: NCI in vitro anti-HIV drug screening test (protection of T4 lymphocytes from HIV cytolysis, XTT readout)
Type: cell-based
Conditions: T4 lymphocytes (CEM cell line) infected with HIV-1, 6 days, XTT formazan; numerical EC50/IC50/TI only in FIGS. 1-4
Method: The procedure used in the NCI's test for agents active against HIV is designed to detect agents acting at any stage of the virus reproductive cycle. The assay basically involves the killing of T4 lymphocytes by HIV. Small amounts of HIV are added to cells, and two cycles of virus reproduction are necessary to obtain the required cell killing. Agents that interact with virions, cells, or virus gene-products to interfere with vital activities will protect cells from cytolysis. All tests are done with at least one positive (e.g., AZT-treated) control done at the same time under identical conditions. The procedure is as follows:
Candidate agent was dissolved in dimethyl sulfoxide then diluted 1:100 in cell culture medium before preparing serial half-log10 dilutions. […]
Individual wells were analyzed spectrophotometrically to quantitate formazan production, and in addition were viewed microscopically for detection of viable cells and confirmation of protective activity. […]
The figures display a plot of the log10 of the sample's concentrations (as μg/mL or M) against the measured test values expressed as a percentage of the uninfected, untreated control values. […] The percent protection has been calculated from the data and is presented on the left side of the graph. […]

| SMILES | activity against HIV |
| --- | --- |
| C[C@H]1Cn2c(nc3c(C4OCCO4)cccc32)-c2c(cccc2[N+](=O)[O-])O1 | confirmed active |

Test system: not given
Test: not given
Conditions: not given

| SMILES | melting point [°C] |
| --- | --- |
| CC(C)(C)C1Cn2c(nc3ccccc32)-c2ccccc2O1 (centres unmarked) | 149 to 150 |
| Cc1ccc(S(=O)(=O)OCC2Cn3c(nc4ccccc43)-c3ccccc3O2)cc1 (centres unmarked) | 165.5 to 166.5 |
| Cc1ccc(S(=O)(=O)OCC2Cn3c(nc4c(C)cccc43)-c3cccc(Cl)c3O2)cc1 (centres unmarked) | 168 to 169 |
| OCC1Cn2c(nc3ccccc32)-c2ccccc2O1 (centres unmarked) | 142 to 143.5 |
| Cc1cccc2c1nc1n2CC(C(C)(C)C)Oc2c(Cl)cccc2-1 (centres unmarked) | 191 to 192 |
| CC(C)(C)C1Cn2c(nc3c(C4OCCO4)cccc32)-c2ccccc2O1 (centres unmarked) | 200 to 201 |
| Cc1cccc2c1nc1n2CC(CO)Oc2c(Cl)cccc2-1 (centres unmarked) | 186.5 to 188 |
